In PubChem BioAssay (NCI):
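48-hour exposure; five concentrations; linearly interpolated endpoints. GI50: concentration for 50% inhibition of growth. TGI denotes the concentration required for complete inhibition of growth.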

How the values were obtained:
Test in all cases: NCI-60 cell line screen, 48 h
[1] = system: SW-620 colon
[2] = system: OVCAR-5 ovarian
[3] = system: NCI/ADR-RES ovarian
[4] = system: SF-295 CNS
[5] = system: UACC-62 melanoma
[6] = system: U251 CNS
[7] = system: T-47D breast
[8] = system: K-562 leukemia
[9] = system: IGROV1 ovarian
[10] = system: BT-549 breast
[11] = system: CAKI-1 renal
[12] = system: NCI-H23 lung
[13] = system: COLO 205 colon
[14] = system: RXF 393 renal
[15] = system: MALME-3M melanoma
[16] = system: HCT-116 colon
[17] = system: A549 NSCLC
[18] = system: SR leukemia
[19] = system: HS 578T breast
[20] = system: MOLT-4 leukemia
[21] = system: MDA-MB-468 breast
[22] = system: OVCAR-3 ovarian
[23] = system: SK-OV-3 ovarian
[24] = system: SK-MEL-5 melanoma
[25] = system: HL-60(TB) leukemia
[26] = system: OVCAR-8 ovarian
[27] = system: SK-MEL-28 melanoma
[28] = system: ACHN renal
[29] = system: SNB-19 CNS
[30] = system: UO-31 renal
[31] = system: SF-539 CNS
[32] = system: SK-MEL-2 melanoma
[33] = system: OVCAR-4 ovarian
[34] = system: NCI-H522 lung
[35] = system: MCF7 breast
[36] = system: SN12C renal
[37] = system: MDA-MB-435
[38] = system: DU-145 prostate
[39] = system: HOP-62 NSCLC
[40] = system: MDA-MB-231 breast
[41] = system: HCT-15 colon
[42] = system: HCC-2998 colon
[43] = system: 786-0 renal
[44] = system: EKVX NSCLC
[45] = system: TK-10 renal
[46] = system: SNB-75 CNS
[47] = system: M14 melanoma
[48] = system: LOX IMVI melanoma
[49] = system: UACC-257 melanoma
[50] = system: A498 renal

`CC1=C(C=O)C2=C(C)C3(CC3)[C@@](C)(O)C(=O)C2=C1` showed a GI50 [1] of 0.255 µM, a TGI [1] of 0.694 µM and a GI50 [2] of 0.223 µM. The TGI [2] was 0.533 µM, the GI50 [3] was 0.321 µM and the TGI [3] was 1.31 µM. For the same compound, the GI50 [4] was 0.194 µM, the TGI [4] was 0.387 µM and the GI50 [5] was 0.179 µM. For the same compound, the TGI [5] was 0.372 µM, the GI50 [6] was 0.17 µM and the TGI [6] was 0.341 µM. For the same compound, the GI50 [7] was 0.199 µM, the TGI [7] was 0.566 µM and the GI50 [8] was 0.243 µM. The TGI [8] was 0.765 µM, the GI50 [9] was 0.236 µM and the TGI [9] was 0.538 µM. It also gave a GI50 [10] of 0.19 µM, a TGI [10] of 0.44 µM and a GI50 [11] of 0.306 µM. The TGI [11] was 1.09 µM, the GI50 [12] was 0.18 µM and the TGI [12] was 0.361 µM. For the same compound, the GI50 [13] was 0.226 µM, the TGI [13] was 0.459 µM and the GI50 [14] was 0.147 µM. It also gave a TGI [14] of 0.293 µM, a GI50 [15] of 0.18 µM and a TGI [15] of 0.353 µM. For the same compound, the GI50 [16] was 0.161 µM, the TGI [16] was 0.317 µM and the GI50 [17] was 0.276 µM. For the same compound, the TGI [17] was 1.01 µM, the GI50 [18] was 0.212 µM and the TGI [18] was 0.695 µM. It also gave a GI50 [19] of 0.259 µM, a TGI [19] of 0.799 µM and a GI50 [20] of 0.218 µM. The TGI [20] was 0.977 µM, the GI50 [21] was 0.159 µM and the TGI [21] was 0.344 µM. For the same compound, the GI50 [22] was 0.25 µM, the TGI [22] was 0.618 µM and the GI50 [23] was 0.678 µM. It also gave a TGI [23] of 1.8 µM, a GI50 [24] of 0.187 µM and a TGI [24] of 0.381 µM. For the same compound, the GI50 [25] was 0.227 µM, the TGI [25] was 0.703 µM and the GI50 [26] was 0.214 µM. For the same compound, the TGI [26] was 0.562 µM, the GI50 [27] was 0.284 µM and the TGI [27] was 0.781 µM. It also gave a GI50 [28] of 0.229 µM, a TGI [28] of 0.543 µM and a GI50 [29] of 0.342 µM. For the same compound, the TGI [29] was 1.34 µM, the GI50 [30] was 0.17 µM and the TGI [30] was 0.359 µM. The GI50 [31] was 0.178 µM, the TGI [31] was 0.359 µM and the GI50 [32] was 0.348 µM. It also gave a TGI [32] of 1.18 µM, a GI50 [33] of 0.407 µM and a TGI [33] of 3.99 µM. It also gave a GI50 [34] of 0.171 µM, a TGI [34] of 0.333 µM and a GI50 [35] of 0.181 µM. For the same compound, the TGI [35] was 0.576 µM, the GI50 [36] was 0.221 µM and the TGI [36] was 0.523 µM. It also gave a GI50 [37] of 0.213 µM, a TGI [37] of 0.495 µM and a GI50 [38] of 0.365 µM. For the same compound, the TGI [38] was 1.31 µM, the GI50 [39] was 0.216 µM and the TGI [39] was 0.518 µM. For the same compound, the GI50 [40] was 0.194 µM, the TGI [40] was 0.367 µM and the GI50 [41] was 0.18 µM. The TGI [41] was 0.37 µM, the GI50 [42] was 0.179 µM and the TGI [42] was 0.338 µM. It also gave a GI50 [43] of 0.209 µM, a TGI [43] of 0.491 µM and a GI50 [44] of 0.244 µM. For the same compound, the TGI [44] was 0.737 µM, the GI50 [45] was 0.519 µM and the TGI [45] was 2.32 µM. The GI50 [46] was 0.176 µM, the TGI [46] was 0.547 µM and the GI50 [47] was 0.212 µM. The TGI [47] was 0.463 µM, the GI50 [48] was 0.153 µM and the TGI [48] was 0.295 µM. The GI50 [49] was 0.188 µM, the TGI [49] was 0.418 µM and the GI50 [50] was 0.996 µM. For the same compound, the TGI [50] was 2.46 µM.
